Assay results taken from ChEMBL document CHEMBL1201862, “PubChem BioAssay data set” (2004).
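1) Cells in 96-well plates. 2) Compound, 48 h, 5 concentrations. 3) Linear interpolation between surrounding doses. 4) Unreached endpoint = highest concentration. GI50: concentration for 50% inhibition of growth.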 Calls of active or inactive are those of the source. Cut-off read from the data, not from the text of the source: active = GI50 up to about 1.1 µM and inactive = higher.

What was measured:
Assay in all cases: NCI tumour cell line growth inhibition, 48 h
[1] = test system: SNB-78
[2] = test system: OVCAR-3
[3] = test system: TK-10
[4] = test system: SNB-19
[5] = test system: SF-295
[6] = test system: IGROV-1
[7] = test system: M14
[8] = test system: NCI-H522
[9] = test system: SK-MEL-28
[10] = test system: UACC-257
[11] = test system: OVCAR-8
[12] = test system: SW-620
[13] = test system: HCT-116
[14] = test system: NCI-H23
[15] = test system: Malme-3M
[16] = test system: DLD-1
[17] = test system: KM12
[18] = test system: HOP-62
[19] = test system: DMS-273
[20] = test system: K562
[21] = test system: OVCAR-4
[22] = test system: SN12C
[23] = test system: SR
[24] = test system: CAKI-1
[25] = test system: XF498
[26] = test system: MOLT-4
[27] = test system: UO-31
[28] = test system: HT-29
[29] = test system: SK-MEL-2
[30] = test system: CCRF-CEM
[31] = test system: SK-OV-3
[32] = test system: DMS-114
[33] = test system: A549
[34] = test system: 786-0
[35] = test system: HCC 2998
[36] = test system: SNB-75
[37] = test system: NCI-H226
[38] = test system: SF-268
[39] = test system: HOP-92
[40] = test system: HL-60
[41] = test system: COLO 205
[42] = test system: M19-MEL
[43] = test system: A498
[44] = test system: SF-539
[45] = test system: UACC-62
[46] = test system: LXFL 529
[47] = test system: EKVX
[48] = test system: RPMI-8226
[49] = test system: SK-MEL-5
[50] = test system: KM-20L2
[51] = test system: NCI-H460
[52] = test system: LOX IMVI
[53] = test system: HOP-18
[54] = test system: HCT-15
[55] = test system: ACHN
[56] = test system: OVCAR-5
[57] = test system: RXF 393
[58] = test system: U-251

`O=C1CNS(=O)(=O)N1` was tested, and the GI50 [1] was > 100 µM (inactive), the GI50 [2] was > 100 µM (inactive) and the GI50 [3] was > 100 µM (inactive). The GI50 [4] was > 100 µM (inactive), the GI50 [5] was > 100 µM (inactive) and the GI50 [6] was > 100 µM (inactive). For the same molecule, the GI50 [7] was > 100 µM (inactive), the GI50 [8] was > 100 µM (inactive) and the GI50 [9] was > 100 µM (inactive). For the same molecule, the GI50 [10] was > 100 µM (inactive), the GI50 [11] was > 100 µM (inactive) and the GI50 [12] was > 100 µM (inactive). For the same molecule, the GI50 [13] was > 100 µM (inactive), the GI50 [14] was > 100 µM (inactive) and the GI50 [15] was > 100 µM (inactive). The GI50 [16] was > 100 µM (inactive), the GI50 [17] was > 100 µM (inactive) and the GI50 [18] was > 100 µM (inactive). For the same molecule, the GI50 [19] was > 100 µM (inactive), the GI50 [20] was > 100 µM (inactive) and the GI50 [21] was > 100 µM (inactive). For the same molecule, the GI50 [22] was > 100 µM (inactive), the GI50 [23] was > 100 µM (inactive) and the GI50 [24] was > 100 µM (inactive). For the same molecule, the GI50 [25] was > 100 µM (inactive), the GI50 [26] was > 100 µM (inactive) and the GI50 [27] was > 100 µM (inactive). The GI50 [28] was > 100 µM (inactive), the GI50 [29] was > 100 µM (inactive) and the GI50 [30] was > 100 µM (inactive). For the same molecule, the GI50 [31] was > 100 µM (inactive), the GI50 [32] was > 100 µM (inactive) and the GI50 [33] was > 100 µM (inactive). For the same molecule, the GI50 [34] was > 100 µM (inactive), the GI50 [35] was > 100 µM (inactive) and the GI50 [36] was > 100 µM (inactive). The GI50 [37] was 14.5 µM (inactive), the GI50 [38] was > 100 µM (inactive) and the GI50 [39] was > 100 µM (inactive). The GI50 [40] was > 100 µM (inactive), the GI50 [41] was > 100 µM (inactive) and the GI50 [42] was > 100 µM (inactive). For the same molecule, the GI50 [43] was > 100 µM (inactive), the GI50 [44] was > 100 µM (inactive) and the GI50 [45] was > 100 µM (inactive). The GI50 [46] was > 100 µM (inactive), the GI50 [47] was > 100 µM (inactive) and the GI50 [48] was > 100 µM (inactive).

In the case of `Cc1c2cc[n+](C)cc2c(C)c2c1[nH]c1ccc(OC(C)C)cc12`, the GI50 [2] is reported as 1.9 µM (inactive), the GI50 [3] is reported as 19.8 µM (inactive) and the GI50 [6] is reported as 1.9 µM (inactive). The GI50 [7] was 6.34 µM (inactive), the GI50 [8] was 1.47 µM (inactive) and the GI50 [49] was 1.4 µM (inactive). The GI50 [50] was 3.58 µM (inactive), the GI50 [51] was 2.15 µM (inactive) and the GI50 [9] was 2.97 µM (inactive). The GI50 [10] was 2.37 µM (inactive), the GI50 [12] was 2.49 µM (inactive) and the GI50 [52] was 4.19 µM (inactive). The GI50 [13] was 2.91 µM (inactive), the GI50 [14] was 1.41 µM (inactive) and the GI50 [15] was 1.34 µM (inactive). The GI50 [17] was 1.62 µM (inactive), the GI50 [53] was 2.54 µM (inactive) and the GI50 [54] was over 100 µM. The GI50 [19] was 2.19 µM (inactive), the GI50 [21] was 2.16 µM (inactive) and the GI50 [22] was 0.392 µM (active). The GI50 [26] was 3.16 µM (inactive), the GI50 [27] was 44.1 µM (inactive) and the GI50 [28] was 3.06 µM (inactive). The GI50 [29] was 1.66 µM (inactive), the GI50 [33] was 2.01 µM (inactive) and the GI50 [55] was 11.6 µM (inactive). The GI50 [36] was 0.239 µM (active), the GI50 [38] was 0.474 µM (active) and the GI50 [39] was 2.6 µM (inactive). For the same molecule, the GI50 [40] was 2.56 µM (inactive), the GI50 [41] was 1.28 µM (inactive) and the GI50 [42] was 1.64 µM (inactive). For the same molecule, the GI50 [43] was 6.35 µM (inactive), the GI50 [44] was 1.39 µM (inactive) and the GI50 [45] was 2.51 µM (inactive). The GI50 [46] was 0.515 µM (active), the GI50 [47] was 6.62 µM (inactive) and the GI50 [48] was 6.1 µM (inactive). The GI50 [56] was 10.9 µM (inactive).

For `COc1cc(CNc2ccc(C)cc2)cc(OC)c1OC`, the GI50 [2] was 0.213 µM (active), the GI50 [4] was 0.533 µM (active) and the GI50 [6] was 0.659 µM (active). The GI50 [8] was 0.255 µM (active), the GI50 [49] was 0.472 µM (active) and the GI50 [50] was 0.246 µM (active). The GI50 [51] was 0.252 µM (active), the GI50 [57] was 0.163 µM (active) and the GI50 [11] was 0.624 µM (active). For the same molecule, the GI50 [12] was 0.149 µM (active), the GI50 [58] was 0.356 µM (active) and the GI50 [52] was 0.621 µM (active). The GI50 [14] was 0.361 µM (active), the GI50 [16] was 0.45 µM (active) and the GI50 [18] was 0.386 µM (active). The GI50 [19] was 0.103 µM (active), the GI50 [20] was 0.0826 µM (active) and the GI50 [23] was 0.138 µM (active). For the same molecule, the GI50 [25] was 0.962 µM (active), the GI50 [26] was 0.331 µM (active) and the GI50 [27] was 0.807 µM (active). The GI50 [29] was 0.229 µM (active), the GI50 [30] was 0.252 µM (active) and the GI50 [31] was 0.301 µM (active). For the same molecule, the GI50 [32] was 0.277 µM (active), the GI50 [33] was 0.5 µM (active) and the GI50 [34] was 0.384 µM (active). For the same molecule, the GI50 [36] was 0.316 µM (active), the GI50 [38] was 0.741 µM (active) and the GI50 [39] was 3.34 µM (inactive). The GI50 [40] was 0.0764 µM (active), the GI50 [41] was 0.219 µM (active) and the GI50 [42] was 0.33 µM (active). For the same molecule, the GI50 [46] was 0.635 µM (active), the GI50 [48] was 0.467 µM (active) and the GI50 [56] was 1.74 µM (inactive).
